# Data reported in PubChem BioAssay AID2060507 (Molecular Pharmacology Branch, DTP, NCI, 2025).
# Test system: 519858-162-T-J1-PDC complex spheroid viability
# Test: Anticancer human tumor 519858-162-T-J1-PDC patient-derived colon adenocarcinoma cell line growth inhibition [GQUAD]
# Conditions: for IC50: curve of first compound; for viability, T/C: stronger effect = lower value
# In short: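 Multi-cell-type spheroids of tumor cells with HUVEC and mesenchymal stem cells, treated with drug combinations. Concentrations descend in half-log steps from near clinical Cmax, or from 10 microM where Cmax is unknown; viability read-out.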
# [1] = second compound 0.0316 µM, first compound 0.0316 µM
# [2] = second compound 0.0316 µM, first compound 0.1 µM
# [3] = second compound 0.0316 µM, first compound 0.316 µM
# [4] = second compound 0.0316 µM, first compound 1 µM
# [5] = second compound 0.0316 µM, first compound 3.16 µM
# [6] = second compound 0.0316 µM, first compound 10 µM
# [7] = second compound 0.1 µM, first compound 0.0316 µM
# [8] = second compound 0.1 µM, first compound 0.1 µM
# [9] = second compound 0.1 µM, first compound 0.316 µM
# [10] = second compound 0.1 µM, first compound 1 µM
# [11] = second compound 0.1 µM, first compound 3.16 µM
# [12] = second compound 0.1 µM, first compound 10 µM
# [13] = second compound 0.316 µM, first compound 0.0316 µM
# [14] = second compound 0.316 µM, first compound 0.1 µM
# [15] = second compound 0.316 µM, first compound 0.316 µM
# [16] = second compound 0.316 µM, first compound 1 µM
# [17] = second compound 0.316 µM, first compound 3.16 µM
# [18] = second compound 0.316 µM, first compound 10 µM
# [19] = second compound 1 µM, first compound 0.0316 µM
# [20] = second compound 1 µM, first compound 0.1 µM
# [21] = second compound 1 µM, first compound 0.316 µM
# [22] = second compound 1 µM, first compound 1 µM
# [23] = second compound 1 µM, first compound 3.16 µM
# [24] = second compound 1 µM, first compound 10 µM
# [25] = second compound 3.16 µM, first compound 0.0316 µM
# [26] = second compound 3.16 µM, first compound 0.1 µM
# [27] = second compound 3.16 µM, first compound 0.316 µM
# [28] = second compound 3.16 µM, first compound 1 µM
# [29] = second compound 3.16 µM, first compound 3.16 µM
# [30] = second compound 3.16 µM, first compound 10 µM
# [31] = second compound 10 µM, first compound 0.0316 µM
# [32] = second compound 10 µM, first compound 0.1 µM
# [33] = second compound 10 µM, first compound 0.316 µM
# [34] = second compound 10 µM, first compound 1 µM
# [35] = second compound 10 µM, first compound 3.16 µM
# [36] = second compound 10 µM, first compound 10 µM
# 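Also: spheroids exposed to compounds for 7 days.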
# 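For viability, T/C in this document: 100% = DMSO vehicle control viability.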
smiles,measurement,setting,value
C=CC(=O)N1CCN(c2nc(=O)n(-c3c(C)ccnc3C(C)C)c3nc(-c4c(O)cccc4F)c(F)cc23)C(C)C1 (stereo not drawn) + Cc1[nH]c2ccc(F)cc2c1-c1nc2c3cccnc3c3ncccc3c2[nH]1,IC50,second compound 0.0316 µM,> 10 µM
same,IC50,second compound 0.1 µM,> 10 µM
same,IC50,second compound 0.316 µM,> 10 µM
same,IC50,second compound 1 µM,> 10 µM
same,IC50,second compound 3.16 µM,> 10 µM
same,IC50,second compound 10 µM,< 0.0316 µM
same,"viability, T/C",[1],80.3%
same,"viability, T/C",[2],88.6%
same,"viability, T/C",[3],65.3%
same,"viability, T/C",[4],81.8%
same,"viability, T/C",[5],90.9%
same,"viability, T/C",[6],71.1%
same,"viability, T/C",[7],130%
same,"viability, T/C",[8],96.3%
same,"viability, T/C",[9],104%
same,"viability, T/C",[10],89.7%
same,"viability, T/C",[11],81.4%
same,"viability, T/C",[12],82.2%
same,"viability, T/C",[13],76.3%
same,"viability, T/C",[14],95.4%
same,"viability, T/C",[15],62.8%
same,"viability, T/C",[16],73%
same,"viability, T/C",[17],74.7%
same,"viability, T/C",[18],97.5%
same,"viability, T/C",[19],97.3%
same,"viability, T/C",[20],75.4%
same,"viability, T/C",[21],94.8%
same,"viability, T/C",[22],85.8%
same,"viability, T/C",[23],79.3%
same,"viability, T/C",[24],69.3%
same,"viability, T/C",[25],59.6%
same,"viability, T/C",[26],73.6%
same,"viability, T/C",[27],79.5%
same,"viability, T/C",[28],46.4%
same,"viability, T/C",[29],72.1%
same,"viability, T/C",[30],53.5%
same,"viability, T/C",[31],39.9%
same,"viability, T/C",[32],44%
same,"viability, T/C",[33],65.6%
same,"viability, T/C",[34],62.8%
same,"viability, T/C",[35],52.5%
same,"viability, T/C",[36],80.4%
CC(C)n1c(=O)n(C)c2cnc3cc(F)c(-c4ccc(OCCCN5CCCCC5)nc4)cc3c21 + Cc1[nH]c2ccc(F)cc2c1-c1nc2c3cccnc3c3ncccc3c2[nH]1,IC50,second compound 0.0316 µM,> 10 µM
same,IC50,second compound 0.1 µM,> 10 µM
same,IC50,second compound 0.316 µM,> 10 µM
same,IC50,second compound 1 µM,> 10 µM
same,IC50,second compound 3.16 µM,> 10 µM
same,IC50,second compound 10 µM,> 10 µM
same,"viability, T/C",[1],97.7%
same,"viability, T/C",[2],124%
same,"viability, T/C",[3],114%
same,"viability, T/C",[4],107%
same,"viability, T/C",[5],78.2%
same,"viability, T/C",[6],67.9%
same,"viability, T/C",[7],77.5%
same,"viability, T/C",[8],96.8%
same,"viability, T/C",[9],86.6%
same,"viability, T/C",[10],91.3%
same,"viability, T/C",[11],89.7%
same,"viability, T/C",[12],121%
same,"viability, T/C",[13],91.5%
same,"viability, T/C",[14],94.2%
same,"viability, T/C",[15],82%
same,"viability, T/C",[16],101%
same,"viability, T/C",[17],84.8%
same,"viability, T/C",[18],80.7%
same,"viability, T/C",[19],79.2%
same,"viability, T/C",[20],85.5%
same,"viability, T/C",[21],101%
same,"viability, T/C",[22],119%
same,"viability, T/C",[23],96.4%
same,"viability, T/C",[24],69.5%
same,"viability, T/C",[25],85.9%
same,"viability, T/C",[26],75.6%
same,"viability, T/C",[27],75.9%
same,"viability, T/C",[28],56.3%
same,"viability, T/C",[29],50.5%
same,"viability, T/C",[30],67.3%
same,"viability, T/C",[31],65.8%
same,"viability, T/C",[32],73.8%
same,"viability, T/C",[33],56.8%
same,"viability, T/C",[34],51.4%
same,"viability, T/C",[35],54.9%
same,"viability, T/C",[36],53%
CC1COCCN1c1cc(C2(S(C)(=N)=O)CC2)nc(-c2ccnc3[nH]ccc23)n1 (stereo not drawn) + Cc1[nH]c2ccc(F)cc2c1-c1nc2c3cccnc3c3ncccc3c2[nH]1,IC50,second compound 0.0316 µM,> 10 µM
same,IC50,second compound 0.1 µM,> 10 µM
same,IC50,second compound 0.316 µM,> 10 µM
same,IC50,second compound 1 µM,> 10 µM
same,IC50,second compound 3.16 µM,> 10 µM
same,IC50,second compound 10 µM,> 10 µM
same,"viability, T/C",[1],87.1%
same,"viability, T/C",[2],91.3%
same,"viability, T/C",[3],96%
same,"viability, T/C",[4],113%
same,"viability, T/C",[5],82.8%
same,"viability, T/C",[6],81.3%
same,"viability, T/C",[7],68.2%
same,"viability, T/C",[8],106%
same,"viability, T/C",[9],75.4%
same,"viability, T/C",[10],73.6%
same,"viability, T/C",[11],91.7%
same,"viability, T/C",[12],79.3%
same,"viability, T/C",[13],121%
same,"viability, T/C",[14],111%
same,"viability, T/C",[15],104%
same,"viability, T/C",[16],87.8%
same,"viability, T/C",[17],67.3%
same,"viability, T/C",[18],96.2%
same,"viability, T/C",[19],71.8%
same,"viability, T/C",[20],81.6%
same,"viability, T/C",[21],75.8%
same,"viability, T/C",[22],73.7%
same,"viability, T/C",[23],61.4%
same,"viability, T/C",[24],75.3%
same,"viability, T/C",[25],74.8%
same,"viability, T/C",[26],79.5%
same,"viability, T/C",[27],87%
same,"viability, T/C",[28],55.6%
same,"viability, T/C",[29],73.2%
same,"viability, T/C",[30],54.6%
same,"viability, T/C",[31],65.2%
same,"viability, T/C",[32],74.7%
same,"viability, T/C",[33],55%
same,"viability, T/C",[34],60.2%
same,"viability, T/C",[35],67.8%
same,"viability, T/C",[36],44.1%
COc1ccc([C@@H](O)c2cc(-c3ncnc4cc(N5CCOCC5)ccc34)c(F)cc2Cl)nn1 + Cc1[nH]c2ccc(F)cc2c1-c1nc2c3cccnc3c3ncccc3c2[nH]1,IC50,second compound 0.0316 µM,> 10 µM
same,IC50,second compound 0.1 µM,> 10 µM
same,IC50,second compound 0.316 µM,> 10 µM
same,IC50,second compound 1 µM,> 10 µM
same,IC50,second compound 3.16 µM,5.82 µM
same,IC50,second compound 10 µM,9.78 µM
same,"viability, T/C",[1],79%
same,"viability, T/C",[2],99.7%
same,"viability, T/C",[3],71.4%
same,"viability, T/C",[4],86.4%
same,"viability, T/C",[5],74.1%
same,"viability, T/C",[6],53%
same,"viability, T/C",[7],82.9%
same,"viability, T/C",[8],92.8%
same,"viability, T/C",[9],88.3%
same,"viability, T/C",[10],72.6%
same,"viability, T/C",[11],85.1%
same,"viability, T/C",[12],54.7%
same,"viability, T/C",[13],96%
same,"viability, T/C",[14],104%
same,"viability, T/C",[15],64%
same,"viability, T/C",[16],72.7%
same,"viability, T/C",[17],89.4%
same,"viability, T/C",[18],70.2%
same,"viability, T/C",[19],123%
same,"viability, T/C",[20],90.4%
same,"viability, T/C",[21],87%
same,"viability, T/C",[22],77.5%
same,"viability, T/C",[23],97.4%
same,"viability, T/C",[24],42.8%
same,"viability, T/C",[25],66.9%
same,"viability, T/C",[26],87.5%
same,"viability, T/C",[27],84.9%
same,"viability, T/C",[28],64.9%
same,"viability, T/C",[29],65.5%
same,"viability, T/C",[30],37.9%
same,"viability, T/C",[31],58.5%
same,"viability, T/C",[32],86.9%
same,"viability, T/C",[33],58.9%
same,"viability, T/C",[34],82.2%
same,"viability, T/C",[35],70.5%
same,"viability, T/C",[36],49.5%
